Assay [1] can be described thus: Inhibition of Coniochaeta sp. FPOX-C CFP-T7 mutant using Fru-ValHis as substrate by Dixon plot analysis.
Assay [2] concerns Coniochaeta. In words: Competitive inhibition of Coniochaeta sp. FPOX-C CFP-T7 mutant using Fru-ValHis as substrate at 250 to 1250 uM by Lineweaver-Burk plot analysis.
Assay [3] has as its system Coniochaeta. In words: Competitive inhibition of Coniochaeta sp. FPOX-C CFP-T7 mutant using Fru-ValHis as substrate at 5 to 25 uM by Lineweaver-Burk plot analysis.
Assay [4] relates to Coniochaeta. In words: Competitive inhibition of Coniochaeta sp. FPOX-C CFP-T7 mutant using Fru-ValHis as substrate at 20 to 100 uM by Lineweaver-Burk plot analysis.

Molecules are shown by their SMILES. The source made the active and inactive calls. The calls are words filed in the database; no cut-off is given here.

Consider `N[C@@H](CCCCSC[C@@]1(O)OC[C@@H](O)[C@@H](O)[C@@H]1O)C(=O)O`, for which the Ki (usually the dissociation constant of the complex between target and ligand, obtained from inhibition or displacement) in assay [1] was 782 µM. Besides, the inhibition result in assay [2] was “Active”.

As for `CC(C)[C@H](SC[C@@]1(O)OC[C@@H](O)[C@@H](O)[C@@H]1O)C(=O)O`, the inhibition result in assay [3] is “Active”. For the same molecule, in assay [1], affinity was put at a Ki of 11.1 µM.

As for `CC(C)[C@H](SC[C@@]1(O)OC[C@@H](O)[C@@H](O)[C@@H]1O)C(=O)N[C@@H](Cc1c[nH]cn1)C(=O)O`, in assay [1], the Ki turned out to be 66.8 µM. The inhibition result in assay [4] was “Active”.
